Organism: Rattus norvegicus
Assay: DrugMatrix - Regimen: Daily Repeat
Type: toxicity, organism-based, Sprague-Dawley
Design: regimen Daily Repeat, gender Male, age 6-8 weeks
Conditions: in vivo, sc, route subcutaneous, […]; for ABSOLUTE BASOPHIL / ABSOLUTE EOSINOPHIL / ABSOLUTE LYMPHOCYTE / ABSOLUTE MONOCYTE / ABSOLUTE SEGMENTED NEUTROPHIL / BASOPHIL / EOSINOPHIL / ERYTHROCYTE COUNT / HEMATOCRIT / HEMOGLOBIN / LEUKOCYTE COUNT / LYMPHOCYTE / MEAN CORPUSCULAR HEMOGLOBIN / MEAN CORPUSCULAR HEMOGLOBIN CONCENTRATION / MEAN CORPUSCULAR VOLUME / MONOCYTE / NEUTROPHIL / NUCLEATED RED BLOOD CELLS / PLATELET COUNT: tissue Blood; for ALANINE AMINOTRANSFERASE / ALBUMIN / ALKALINE PHOSPHATASE / ASPARTATE AMINOTRANSFERASE / BLOOD UREA NITROGEN / CARBON DIOXIDE / CHLORIDE / CHOLESTEROL / CREATINE PHOSPHOKINASE / CREATININE / GLUCOSE / LACTATE DEHYDROGENASE / LIPASE / PHOSPHORUS / POTASSIUM / SODIUM / TOTAL BILIRUBIN / TOTAL PROTEIN / URIC ACID: tissue Plasma
[1] = 27 mg/kg, 120 h, dose level Low, time 5 day
[2] = 1200 mg/kg, 72 h, dose level High, time 3 day
[3] = 1200 mg/kg, 120 h, dose level High, time 5 day

## Clc1ccc(CSC(Cn2ccnc2)c2ccc(Cl)cc2Cl)cc1 (centres undefined) [SULCONAZOLE]
[1]
  ABSOLUTE BASOPHIL: 0 CELLS/uL
  ABSOLUTE EOSINOPHIL: 176 CELLS/uL
  ABSOLUTE LYMPHOCYTE: 10589.67 CELLS/uL
  ABSOLUTE MONOCYTE: 178.33 CELLS/uL
  ABSOLUTE SEGMENTED NEUTROPHIL: 2489.33 CELLS/uL
  BASOPHIL: 0%
  EOSINOPHIL: 1.33%
  ERYTHROCYTE COUNT: 5.26 x10E6/uL
  HEMATOCRIT: 33.93%
  HEMOGLOBIN: 13 G/DL
  LEUKOCYTE COUNT: 13.43 x10E3/uL
  LYMPHOCYTE: 78.33%
  MEAN CORPUSCULAR HEMOGLOBIN: 24.73 pg
  MEAN CORPUSCULAR HEMOGLOBIN CONCENTRATION: 38.3 G/DL
  MEAN CORPUSCULAR VOLUME: 64.6 fL
  MONOCYTE: 1.33%
  NEUTROPHIL: 19%
  NUCLEATED RED BLOOD CELLS: 0 /100WBC
  PLATELET COUNT: 1332 x10E3/uL
  ALANINE AMINOTRANSFERASE: 56 u/L
  ALBUMIN: 3.9 G/DL
  ALKALINE PHOSPHATASE: 279.67 u/L
  ASPARTATE AMINOTRANSFERASE: 81.67 u/L
  BLOOD UREA NITROGEN: 17 mg/dL
  CARBON DIOXIDE: 25.33 mmol/L
  CHLORIDE: 105.67 MEQ/L
  CHOLESTEROL: 64.67 mg/dL
  CREATINE PHOSPHOKINASE: 435.33 u/L
  CREATININE: 0.16 mg/dL
  GLUCOSE: 162.33 mg/dL
  LACTATE DEHYDROGENASE: 119.67 u/L
  LIPASE: 7.33 u/L
  PHOSPHORUS: 14.4 mg/dL
  POTASSIUM: 6.46 MEQ/L
  SODIUM: 145.43 MEQ/L
  TOTAL BILIRUBIN: 0.17 mg/dL
  TOTAL PROTEIN: 5.9 G/DL
  URIC ACID: 1.63 mg/dL
[2]
  ABSOLUTE BASOPHIL: 0 CELLS/uL
  ABSOLUTE EOSINOPHIL: 83.33 CELLS/uL
  ABSOLUTE LYMPHOCYTE: 7163.33 CELLS/uL
  ABSOLUTE MONOCYTE: 161.33 CELLS/uL
  ABSOLUTE SEGMENTED NEUTROPHIL: 2925.33 CELLS/uL
  BASOPHIL: 0%
  EOSINOPHIL: 1%
  ERYTHROCYTE COUNT: 5.45 x10E6/uL
  HEMATOCRIT: 33.7%
  HEMOGLOBIN: 12.87 G/DL
  LEUKOCYTE COUNT: 10.33 x10E3/uL
  LYMPHOCYTE: 68.33%
  MEAN CORPUSCULAR HEMOGLOBIN: 23.6 pg
  MEAN CORPUSCULAR HEMOGLOBIN CONCENTRATION: 38.2 G/DL
  MEAN CORPUSCULAR VOLUME: 61.83 fL
  MONOCYTE: 1.67%
  NEUTROPHIL: 29%
  NUCLEATED RED BLOOD CELLS: 0 /100WBC
  PLATELET COUNT: 1327 x10E3/uL
  ALANINE AMINOTRANSFERASE: 43 u/L
  ALBUMIN: 3.9 G/DL
  ALKALINE PHOSPHATASE: 294.67 u/L
  ASPARTATE AMINOTRANSFERASE: 79.33 u/L
  BLOOD UREA NITROGEN: 14 mg/dL
  CARBON DIOXIDE: 30 mmol/L
  CHLORIDE: 109 MEQ/L
  CHOLESTEROL: 69.33 mg/dL
  CREATINE PHOSPHOKINASE: 308.33 u/L
  CREATININE: 0.2 mg/dL
  GLUCOSE: 133.67 mg/dL
  LACTATE DEHYDROGENASE: 112.67 u/L
  LIPASE: 8 u/L
  PHOSPHORUS: 10.93 mg/dL
  POTASSIUM: 6.11 MEQ/L
  SODIUM: 149.45 MEQ/L
  TOTAL BILIRUBIN: 0.13 mg/dL
  TOTAL PROTEIN: 6.27 G/DL
  URIC ACID: 0.83 mg/dL
[3]
  ABSOLUTE BASOPHIL: 0 CELLS/uL
  ABSOLUTE EOSINOPHIL: 276.67 CELLS/uL
  ABSOLUTE LYMPHOCYTE: 12157 CELLS/uL
  ABSOLUTE MONOCYTE: 40.67 CELLS/uL
  ABSOLUTE SEGMENTED NEUTROPHIL: 4359 CELLS/uL
  BASOPHIL: 0%
  EOSINOPHIL: 1.67%
  ERYTHROCYTE COUNT: 5.75 x10E6/uL
  HEMATOCRIT: 35.17%
  HEMOGLOBIN: 13.07 G/DL
  LEUKOCYTE COUNT: 16.83 x10E3/uL
  LYMPHOCYTE: 72.33%
  MEAN CORPUSCULAR HEMOGLOBIN: 22.73 pg
  MEAN CORPUSCULAR HEMOGLOBIN CONCENTRATION: 37.2 G/DL
  MEAN CORPUSCULAR VOLUME: 61.23 fL
  MONOCYTE: 0.33%
  NEUTROPHIL: 25.67%
  NUCLEATED RED BLOOD CELLS: 0 /100WBC
  PLATELET COUNT: 1614.33 x10E3/uL
  ALANINE AMINOTRANSFERASE: 39.67 u/L
  ALBUMIN: 3.47 G/DL
  ALKALINE PHOSPHATASE: 268.67 u/L
  ASPARTATE AMINOTRANSFERASE: 76.33 u/L
  BLOOD UREA NITROGEN: 16.67 mg/dL
  CARBON DIOXIDE: 25 mmol/L
  CHLORIDE: 104.33 MEQ/L
  CHOLESTEROL: 59.67 mg/dL
  CREATINE PHOSPHOKINASE: 355 u/L
  CREATININE: 0.23 mg/dL
  GLUCOSE: 160.67 mg/dL
  LACTATE DEHYDROGENASE: 169.33 u/L
  LIPASE: 7.33 u/L
  PHOSPHORUS: 12.67 mg/dL
  POTASSIUM: 6.48 MEQ/L
  SODIUM: 144.93 MEQ/L
  TOTAL BILIRUBIN: 0.13 mg/dL
  TOTAL PROTEIN: 6.1 G/DL
  URIC ACID: 2.87 mg/dL
